Test results reported in PMC9919699, “A Comprehensive Approach to Derivatization: Elemental Composition, Biochemical, and In Silico Studies of Metformin Derivatives Containing Copper and Zinc Complexes” (Molecules, 2023).
Where two headings read alike, the source gives them in different places.

What was measured:
α-amylase = α-amylase enzyme inhibition assay (starch, dinitro-salicylic acid, 540 nm); type: biochemical; conditions: for IC50: read-out: IC50
Procedure: All derivatives of metformin were analyzed for serum amylase inhibitory activity using the Yukihoko Hara method. Three test tubes were labeled as blank (B), test (T), and control (C). Then, 2.5 mL of phosphate buffer (pH 6.8) was added to each test tube. Next, 1 mL of starch and 1 mL of 2 N sodium chloride solution were added to each test tube. The test tubes were incubated at 37 °C for 10 min. After incubation, 0.5 mL of derivatives was added to test tube T, followed by 0.2 mL of enzyme (α-amylase). All contents were mixed well, and then the tube was incubated at 37 °C for 10 min. In the control test tube, normal saline (2 N), starch solution (1 mL), and enzyme solution (0.2 mL) were added before incubating at 37 °C for 10 min. In the blank test tube, only 5.7 mL of distilled water was added. Dinitro-salicylic acid (0.2 mL) was added to all test tubes. The contents were mixed well, and the test tubes were kept in a boiling water bath for 15 min. The intensity of reddish orange was read at 540 nm. The percentage inhibitory action of serum amylase was calculated using the following formula:Percentage inhibition = OD of control − OD of test tube/OD of control × 100.

α-glucosidase = α-glucosidase enzyme inhibition assay (starch substrate, anthrone reagent, 640 nm); type: biochemical
Procedure: The α-glucosidase-inhibitory activity of all derivatives of metformin was tested using the method previously described. Three test tubes were marked as test (T), blank (B), and control (C). Then, 200 µL of substrate (starch) and enzyme (α-glucosidase) was added to test tubes T and C. The contents were mixed well, and then the test tubes were incubated at 37 °C for 30 min. After incubation, trichloroacetic acid was added to all test tubes, which were then centrifuged for 10 min. Free glucose was available after the reaction with anthrone reagent (1.5 mL). The contents in the test tubes were boiled for 15 min, and the absorbance was read at a wavelength at 640 nm. The percentage inhibition was calculated using the following formula:Percentage inhibition = OD of control − OD of test tube/OD of control × 100.

[1] = 250 µg/mL, Table 9 (MZn series)
[2] = 500 µg/mL, Table 9 (MZn series)
[3] = 1000 µg/mL, Table 9 (MZn series)
[4] = 250 µg/mL, Table 6 (MZn series)
[5] = 500 µg/mL, Table 6 (MZn series)
[6] = 1000 µg/mL, Table 6 (MZn series)
[7] = 250 µg/mL, Table 7 (Met series)
[8] = 500 µg/mL, Table 7 (Met series)
[9] = 1000 µg/mL, Table 7 (Met series)
[10] = 250 µg/mL, Table 4 (Met series)
[11] = 500 µg/mL, Table 4 (Met series)
[12] = 1000 µg/mL, Table 4 (Met series)
[13] = Table 4 (Met series), read-out: IC50

Row | Compound | % Inhibition (α-amylase; [1]) | % Inhibition (α-amylase; [2]) | % Inhibition (α-amylase; [3]) | IC50 (α-amylase; Table 9 (MZn series)) | IC50 (α-glucosidase) | % Inhibition (α-glucosidase; [4]) | % Inhibition (α-glucosidase; [5]) | % Inhibition (α-glucosidase; [6]) | IC50 (α-glucosidase; Table 6 (MZn series), read-out: IC50) | % Inhibition (α-amylase; [7]) | % Inhibition (α-amylase; [8]) | % Inhibition (α-amylase; [9]) | IC50 (α-amylase; Table 7 (Met series)) | % Inhibition (α-glucosidase; [10]) | % Inhibition (α-glucosidase; [11]) | % Inhibition (α-glucosidase; [12]) | IC50 (α-glucosidase; [13])
1 | COc1cc(C=NC(=N)NC(=N)N(C)C)ccc1O.COc1cc(C=NC(=N)NC(=N)N(C)C)ccc1O.O.O.O.O.O.O=S(=O)([O-])[O-].[Zn+2] [MZn8] | 37.46 ± 0.23% | 68.50 ± 0.40% | 83.52 ± 0.40% | 900 µM | 511.4 µg/mL | 49.24 ± 0.21% | 70.37 ± 0.25% | 81.54 ± 0.26% | 650 µM |  |  |  |  |  |  |  | 
2 | CN(C)C(=N)NC(=N)N=C(c1ccccc1)C(O)c1ccccc1.CN(C)C(=N)NC(=N)N=C(c1ccccc1)C(O)c1ccccc1.O.O.O.O.O.O=S(=O)([O-])[O-].[Zn+2] (centres unmarked) [MZn9] | 15.64 ± 0.28% | 38.64 ± 0.40% | 59.70 ± 0.46% | 700 µM |  | 28.64 ± 0.25% | 37.51 ± 0.25% | 45.37 ± 0.20% |  |  |  |  |  |  |  |  | 
3 | C=NC(=N)NC(=N)N(C)C [Met4, N,N-dimethyl-N′-methylidenetriimidodicarbonic diamide] |  |  |  |  |  |  |  |  |  | 15.48 ± 0.15% | 37.65 ± 0.19% | 55.48 ± 0.23% | 700 µM | 17.49 ± 0.29% | 25.77 ± 0.35% | 43.72 ± 0.26% | 
4 | CC(C)=NC(=N)NC(=N)N(C)C [Met5, N,N-dimethyl-N′-(propan-2-ylidene)triimidodicarbonic diamide] |  |  |  |  |  |  |  |  |  | 15.61 ± 0.20% | 39.48 ± 0.32% | 63.47 ± 0.23% | 740 µM | 22.85 ± 0.15% | 39.43 ± 0.19% | 53.44 ± 0.15% | 2000 µM
5 | C/C(=N\C(=N)NC(=N)N(C)C)c1ccccc1 [Met6, N,N-dimethyl-N′-[(1E)-1-phenylethylidene]triimidodicarbonic diamide] |  |  |  |  |  |  |  |  |  | 18.48 ± 0.26% | 33.35 ± 0.20% | 41.34 ± 0.17% | 1700 µM | 16.41 ± 0.19% | 28.86 ± 0.15% | 51.47 ± 0.26% | 1300 µM
6 | CN(C)C(=N)NC(=N)N=C(c1ccccc1)c1ccccc1 [Met7, N′-(diphenylmethylidene)-N,N-dimethyltriimidodicarbonic diamide] |  |  |  |  |  |  |  |  |  | 24.25 ± 0.20% | 34.45 ± 0.26% | 48.33 ± 0.51% | 1400 µM | 27.42 ± 0.32% | 41.84 ± 0.15% | 55.77 ± 0.01% | 900 µM
7 | CN(C)C(=N)NC(=N)N=C(c1ccccc1)C(O)c1ccccc1 (centres unmarked) [Met9, N′-[(1Z)-2-hydroxy-1,2-diphenylethylidene]-N,N-dimethyltriimidodicarbonic diamide] |  |  |  |  |  |  |  |  |  | 5.41 ± 0.20% | 8.61 ± 0.25% | 19.71 ± 0.46% | 790 µM | 10.79 ± 0.10% | 29.86 ± 0.10% | 39.09 ± 0.05% | 
8 | CN(C)C(=N)N=C(N)N [Met, N,N-dimethyltriimidodicarbonic diamide, reference compound] |  |  |  |  |  |  |  |  |  | 55.27 ± 0.20% | 63.18 ± 0.20% | 85.25 ± 0.32% | 9400 µM | 41.73 ± 0.10% | 52.83 ± 0.11% | 81.30 ± 0.10% | 4800 µM
